Reference: patent US6753337B2, “Alkynyl containing hydroxamic acid compounds as matrix metalloproteinase/tace inhibitors” (Wyeth Holdings Corporation, priority 1999, dated 2004)
Where a name gives a salt, the structure may show the parent alone.

Assays:
MMP-1 = biological target: T1, MMP-1 (Homo sapiens, UniProt P03956); assay: MMP-1 inhibition (thiopeptide or fluorescent peptide substrate); format: biochemical; details: for IC50: read-out: MMP1 IC50
T1 sequence (P03956 100-469): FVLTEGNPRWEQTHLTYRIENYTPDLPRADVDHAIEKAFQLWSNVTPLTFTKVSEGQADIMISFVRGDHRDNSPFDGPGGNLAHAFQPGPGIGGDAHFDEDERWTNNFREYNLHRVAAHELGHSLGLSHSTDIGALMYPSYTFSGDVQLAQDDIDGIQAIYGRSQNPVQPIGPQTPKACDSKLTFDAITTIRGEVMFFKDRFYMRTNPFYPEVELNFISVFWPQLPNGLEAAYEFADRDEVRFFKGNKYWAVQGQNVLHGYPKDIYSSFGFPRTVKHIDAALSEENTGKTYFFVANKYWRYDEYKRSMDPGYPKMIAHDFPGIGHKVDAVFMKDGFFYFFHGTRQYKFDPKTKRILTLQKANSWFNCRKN

MMP-13 = MMP-13 (Homo sapiens, UniProt P45452); assay: MMP-13 inhibition (thiopeptide or fluorescent peptide substrate); format: biochemical; details: read-out: MMP13 IC50
Procedure, shortened: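 Human recombinant MMP-1, MMP-9 or MMP-13 was run either with a thiopeptide substrate plus DTNB (1 mM working dilution) in 50 mM HEPES pH 7.5, 5 mM CaCl2 (colorimetric), or with a quenched fluorescent peptide in HCBC buffer pH 7.0. Reactions started with substrate; the rate slope was compared with control by Dunnett's test.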

Compound | IC50 (MMP-1) [nM] | IC50 (MMP-13) [nM] | MMP1 % inhibition (MMP-1; printed in the MMP1 IC50 column, concentration not given) [%]
CC#CCOc1ccc([S+]([O-])CC2(C(=O)NO)CCNCC2)cc1 (centres unmarked) [Example 33, 4-[[[4-(2-Butynyloxy)phenyl]sulfinyl]methyl]-N-hydroxy-4-piperidinecarboxamide] | > 10000 | ~10000 | 
CC#CCOc1ccc(S(=O)(=O)CC2(C(=O)NO)CCN(C(=O)OC(C)(C)C)CC2)cc1 [Example 34, tert-Butyl-4-({[4-(but-2-ynyloxy)phenyl]sulfonyl}methyl)-4-[(hydroxyamino)-carbonyl]piperidine-1-carboxylate] | ~10000 | 102 | 
CC#CCOc1ccc(S(=O)(=O)CC2(C(=O)NO)CCN(C(C)=O)CC2)cc1 [Example 36, 1-Acetyl-4-[[[4-(2-butynyloxy)phenyl]sulfonyl]methyl]-N-hydroxy-4-piperidinecarboxamide] | 3900 | 380 | 
CC#CCOc1ccc(S(=O)(=O)CC2(C(=O)NO)CCN(C(=O)NC(C)(C)C)CC2)cc1 [Example 38] | ~10000 | 279 | 
CC#CCOc1ccc(S(=O)(=O)CC2(C(=O)NO)CCN(C(=O)OCc3ccccc3)CC2)cc1 [Example 40, Benzyl 4-({[4-(2-butynyloxy)phenyl]sulfonyl}methyl)-4-[(hydroxyamino)-carbonyl]-1-piperidinecarboxylate] | 707 | 36 | 
CC#CCOc1ccc(S(=O)(=O)CC2(C(=O)NO)CCN(Cc3ccccc3)CC2)cc1 [Example 41] | 2680 | 254 | 
CC#CCOc1ccc(S(=O)(=O)CC2(C(=O)NO)CCN(C(=O)C3(C)COC(C)(C)OC3)CC2)cc1 [Example 42, 4-({[4-(2-Butynyloxy)phenyl]sulfonyl}methyl)-N-hydroxy-1-[(2,2,5-trimethyl-1,3-dioxan-5-yl)carbonyl]-4-piperidinecarboxamide] | ~10000 | 1630 | 
CC#CCOc1ccc(S(=O)(=O)CC2(C(=O)NO)CCN(C(=O)C(C)(CO)CO)CC2)cc1 [Example 43, 4-({[4-(2-Butynyloxy)phenyl]sulfonyl}methyl)-N-hydroxy-1-[3-hydroxy-2-(hydroxymethyl)-2-methylpropanoyl]-4-piperidinecarboxamide] | ~10000 | 1640 | 
CC#CCOc1ccc(S(=O)(=O)CC2(C(=O)NO)CCN(C(=N)N)CC2)cc1 [Example 44] |  | 2380 | 35
CC#CCOc1ccc(S(=O)(=O)CC2(C(=O)NO)CCN(CC#CCO)CC2)cc1 [Example 45] | 3800 | 423 | 
CC#CCOc1ccc(S(=O)(=O)C2(C(=O)NO)CCN(C(C)=O)CC2)cc1 [Example 64, 1-Acetyl-4-(4-but-2-ynyloxybenzenesulfonyl)piperidine-4-carboxylic acid hydroxamide] | 4080 | 136 | 
CC#CCOc1ccc(S(=O)(=O)C2(C(=O)NO)CCN(C(=O)c3ccccc3)CC2)cc1 [Example 65, 1-Benzoyl-4-(4-but-2-ynyloxybenzenesulfonyl)piperidine-4-carboxylic acid hydroxamide] | 3530 | 105 | 
CC#CCOc1ccc(S(=O)(=O)C2(C(=O)NO)CCN(C(=O)c3ccc(OC)cc3)CC2)cc1 [Example 66, 1-(4-Methoxybenzoyl)-4-(4-but-2-ynyloxybenzenesulfonyl)piperidine-4-carboxylic acid hydroxamide] | 2770 | 81 | 
CC#CCOc1ccc(S(=O)(=O)C2(C(=O)NO)CCN(C(=O)N3CCCC3)CC2)cc1 [Example 67, 4-(4-But-2-ynyloxybenzenesulfonyl)-N-hydroxy-1-(pyrrolidine-1-carbonyl)-4-piperidinecarboxamide] | 2030 | 345 | 
CC#CCOc1ccc(S(=O)(=O)C2(C(=O)NO)CCN(C(=O)OCC)CC2)cc1 [Example 68, Ethyl 4-(4-but-2-ynyloxybenzenesulfonyl)-4-[(hydroxyamino)-carbonyl]-1-piperidinecarboxylate] | 2250 | 503 | 
CC#CCOc1ccc(S(=O)(=O)C2(C(=O)NO)CCN(S(=O)(=O)C(F)(F)F)CC2)cc1 [Example 69, 4-(4-But-2-ynyloxybenzenesulfonyl)-N-hydroxy-1-[(trifluoromethyl)-sulfonyl]-4-piperidinecarboxamide] | 4000 | 499 | 
CC#CCOc1ccc(S(=O)(=O)C2(C(=O)NO)CCN(C(=O)c3cccnc3)CC2)cc1 [Example 70, 4-(4-But-2-ynyloxybenzenesulfonyl)-N-hydroxy-1-(3-pyridinylcarbonyl)-4-piperidinecarboxamide] | 2960 | 113 | 
CC#CCOc1ccc(S(=O)(=O)C2(C(=O)NO)CCN(C(=O)c3cccs3)CC2)cc1 [Example 71, 4-(4-but-2-ynyloxybenzenesulfonyl)-N-hydroxy-1-(2-thienylcarbonyl)-4-piperidinecarboxamide] | 3120 | 183 | 
CC#CCOc1ccc(S(=O)(=O)C2(C(=O)NO)CCN(S(=O)(=O)c3ccc(OC)cc3)CC2)cc1 [Example 72, 4-(4-but-2-ynyloxybenzenesulfonyl)-N-hydroxy-1-[(4-methoxyphenyl)-sulfonyl]-4-piperidinecarboxamide] | 4160 | 369 | 
CC#CCOc1ccc(S(=O)(=O)C2(C(=O)NO)CCN(C(=O)C(C)(CO)CO)CC2)cc1 [Example 74, 4-(4-But-2-ynyloxybenzenesulfonyl)-N-hydroxy-1-[3-hydroxy-2-(hydroxymethyl)-2-methylpropanoyl]-4-piperidinecarboxamide] | 4340 | 287 | 
CC#CCOc1ccc(S(=O)(=O)C2(C(=O)NO)CCN(C(=O)OC(C)(C)C)CC2)cc1 [Example 75, Tert-butyl 4-{[4-(2-butynyloxy)phenyl]sulfonyl}-4-[(hydroxyamino)carbonyl-]-1-piperidinecarboxalate] | 2590 | 284 | 
CC#CCOc1ccc(S(=O)(=O)C2(C(=O)NO)CCNCC2)cc1 [Example 76, 4-{[4-(2-butynyloxy)phenyl]sulfonyl}-N-hydroxy-4-piperidinecarboxamide hydrochloride] | 4500 | 4020 | 
CC#CCOc1ccc(S(=O)(=O)C2(C(=O)NO)CCN(Cc3ccc(C(=O)OC)cc3)CC2)cc1 [Example 77, hydrochloride] | 2190 | 349 | 
CC#CCOc1ccc(S(=O)(=O)C2(C(=O)NO)CCN(Cc3ccc(C(=O)O)cc3)CC2)cc1 [Example 78, 4-({4-{[4-(2-butynyloxy)phenyl]sulfonyl}-4-[(hydroxyamino)-carbonyl]-1-piperidinyl}methyl)benzoic acid hydrochloride] | 1050 | 73.7 | 
CC#CCOc1ccc(S(=O)(=O)C2(C(=O)NO)CCN(Cc3ccc(C(N)=O)cc3)CC2)cc1 [Example 79, 1-[4-(Aminocarbonyl)benzyl]-4-{[4-(2-butynyloxy)phenyl]sulfonyl}-N-hydroxy-4-piperidinecarboxamide hydrochloride] | 2420 | 50.6 | 
CC#CCOc1ccc([S+]([O-])C2(C(=O)NO)CCN(C(=O)OC(C)(C)C)CC2)cc1 (centres unmarked) [Example 80, tert-butyl 4-{[4-(but-2-ynyloxy)phenyl]sulfinyl}-4-[(hydroxyamino)carbonyl]piperidine-1-carboxalate] | 186000 | 40 | 
CC#CCOc1ccc([S+]([O-])C2(C(=O)NO)CCNCC2)cc1 (centres unmarked) [Example 81, 4-(4-(But-2-ynyloxy-benzenesulfinyl)-piperidine-4-carboxylic acid hydroxamide hydrochloride] | 1880 | 593 | 
CC#CCOc1ccc([S+]([O-])C2(C(=O)NO)CCN(Cc3ccc(Br)cc3)CC2)cc1 (centres unmarked) [Example 82, 1-(4-Bromo-benzyl)-4-(4-But-2-ynyloxy-benzenesulfinyl)-piperidine-4-carboxylic acid hydroxamide hydrochloride] | 257000 | 62 | 
